Laboratory results: patent US12247031B2, “Cyclobutyl pyrazolopyrimidine PDE9 inhibitors” (Merck Sharp & Dohme LLC, priority 2018, dated 2025)

Biological target: Human PDE9 (PDE9A2) (Homo sapiens (Human), UniProt O76083)
Assay: PDE9 IMAP fluorescence polarization assay
Format: biochemical
Settings: human PDE9A2, FAM-cGMP substrate 50 nM, IMAP FP, apparent inhibition constant
Method: The activity of the compounds in accordance with the present invention as PDE9 inhibitors may be readily determined without undue experimentation using a fluorescence polarization (FP) methodology that is well known in the art (Huang, W., et al., J. Biomol Screen. 2002, 7: 215).
In a typical experiment the PDE9 inhibitory activity of the compounds of the present invention was determined in accordance with the following experimental method.
Human PDE9 (PDE9A2, GenBank Accession No. NM_001001567), full length with N-terminal GST tag, was purchased from BPS Bioscience. The fluorescence polarization assay for cyclic nucleotide phosphodiesterases was performed using an IMAP® FP kit supplied by Molecular Devices, Sunnyvale, CA (product #R8139). IMAP® technology has been applied previously to phosphodiesterase assays (Huang, W., et al., J. Biomol Screen. 2002, 7: 215).
Fluorescence polarization (mP) was calculated from the parallel (S) and perpendicular (P) fluorescence of each sample well and the analogous values for the median control well, containing only substrate (So and Po), using the following equation: Polarization (mP)=1000*(S/So−P/Po)/(S/So+P/Po).
Dose-inhibition profiles for each compound were characterized by fitting the mP data to a four-parameter equation given below. The apparent inhibition constant (KI), the maximum inhibition at the low plateau relative to “100% Inhibition Control” (Imax; e.g. 1=>same as this control), the minimum inhibition at the high plateau relative to the “0% Inhibition Control” (Imin, e.g. 0=>same as the no drug control) and the Hill slope (nH) are determined by a non-linear least squares fitting of the mP values as a function of dose of the compound using an in-house software based on the procedures described by Mosser et al., JALA. 2003, 8: 54-63, using the following equation: […]

Row | SMILES | Ki [nM]
1 | C[C@@H](c1ccc(C(F)(F)F)nc1)n1nc(C#N)c2c(=O)[nH]c(C3CCC3c3ccn(C)n3)nc21 (single isomer, unassigned) [Example 18] | 35.9
2 | C[C@@H](c1ccc(C(F)(F)F)nc1)n1nc(C#N)c2c(=O)[nH]c(C3CCC3n3cccn3)nc21 (single isomer, unassigned) [Example 36] | 148
3 | CC(c1ccc(C(F)(F)F)nc1)n1nc(C#N)c2c(=O)[nH]c(C3CCC3n3ccc(C#N)n3)nc21 (single isomer, unassigned) [Example 27, 6-(2-(3-cyano-1H-pyrazol-1-yl)cyclobutyl)-4-oxo-1-(1-(6-(trifluoromethyl)pyridin-3-yl)ethyl)-4,5-dihydro-1H-pyrazolo[3,4-d]pyrimidine-3-carbonitrile] | 1.51
4 | C[C@@H](c1ccc(C(F)(F)F)nc1)n1nc(C#N)c2c(=O)[nH]c(C3CCC3n3cc(C4CC4)cn3)nc21 (single isomer, unassigned) [Example 39] | 1.75
5 | C[C@@H](c1ccc(C(F)(F)F)nc1)n1nc(C#N)c2c(=O)[nH]c(C3CCC3c3ccccn3)nc21 (single isomer, unassigned) [Example 9] | 2.72
6 | C[C@@H](c1ccc(C(F)(F)F)nc1)n1nc(C#N)c2c(=O)[nH]c(C3CCC3c3ccn(C)n3)nc21 (single isomer, unassigned) [Example 17] | 43.2
7 | C[C@@H](c1ccc(C(F)(F)F)nc1)n1nc(C#N)c2c(=O)[nH]c(C3CCC3c3cc4n(n3)CCC4)nc21 (stereo partly drawn) [Example 12, 6-(2-(5,6-dihydro-4H-pyrrolo[1,2-b]pyrazol-2-yl)cyclobutyl)-4-oxo-1-((S)-1-(6-(trifluoromethyl)pyridin-3-yl)ethyl)-4,5-dihydro-1H-pyrazolo[3,4-d]pyrimidine-3-carbonitrile] | 608
8 | C[C@@H](c1ccc(C(F)(F)F)nc1)n1nc(C#N)c2c(=O)[nH]c(C3CCC3n3cc(F)cn3)nc21 (single isomer, unassigned) [Example 34] | 5.9
9 | CC(c1ccc(C(F)(F)F)nc1)n1nc(C#N)c2c(=O)[nH]c(C3CCC3n3ccc(C#N)n3)nc21 (single isomer, unassigned) [Example 26, 6-(2-(3-cyano-1H-pyrazol-1-yl)cyclobutyl)-4-oxo-1-(1-(6-(trifluoromethyl)pyridin-3-yl)ethyl)-4,5-dihydro-1H-pyrazolo[3,4-d]pyrimidine-3-carbonitrile] | 96.1
10 | C[C@@H](c1ccc(C(F)(F)F)nc1)n1nc(C#N)c2c(=O)[nH]c(C3CCC3c3cncnc3)nc21 (stereo partly drawn) [Example 22, 4-oxo-6-(2-(pyrimidin-5-yl)cyclobutyl)-1-((S)-1-(6-(trifluoromethyl)pyridin-3-yl)ethyl)-4,5-dihydro-1H-pyrazolo[3,4-d]pyrimidine-3-carbonitrile] | 608
11 | Cc1nnc(C2CCC2c2nc3c(c(C#N)nn3C(C)c3ccc(C(F)(F)F)nc3)c(=O)[nH]2)o1 (single isomer, unassigned) [Example 3, 6-(2-(5-methyl-1,3,4-oxadiazol-2-yl)cyclobutyl)-4-oxo-1-(1-(6-(trifluoromethyl)pyridin-3-yl)ethyl)-4,5-dihydro-1H-pyrazolo[3,4-d]pyrimidine-3-carbonitrile] | 221
12 | CC(C1CCOCC1)n1nc(C#N)c2c(=O)[nH]c(C3CCC3n3cc(C#N)cn3)nc21 (centres unmarked) [Example 41, 6-(2-(4-cyano-1H-pyrazol-1-yl)cyclobutyl)-4-oxo-1-(1-(tetrahydro-2H-pyran-4-yl)ethyl)-4,5-dihydro-1H-pyrazolo[3,4-d]pyrimidine-3-carbonitrile] | 608
13 | C[C@@H](c1ccc(C(F)(F)F)nc1)n1nc(C#N)c2c(=O)[nH]c(C3CCC3c3ncccc3F)nc21 (single isomer, unassigned) [Example 15] | 14.1
14 | C[C@@H](c1ccc(C(F)(F)F)nc1)n1nc(C#N)c2c(=O)[nH]c(C3CCC3n3ccc(C(F)(F)F)n3)nc21 (stereo partly drawn) [Example 32, 4-oxo-6-(2-(3-(trifluoromethyl)-1H-pyrazol-1-yl)cyclobutyl)-1-((S)-1-(6-(trifluoromethyl)pyridin-3-yl)ethyl)-4,5-dihydro-1H-pyrazolo[3,4-d]pyrimidine-3-carbonitrile] | 608
